The term IC50 denotes the concentration needed to halve the response being measured.

The values below come from patent US9630947B2, “Therapeutic compounds and related methods of use” (OTSUKA PHARMACEUTICAL CO., LTD., priority 2009, dated 2017).

This assay addresses T1, purified STEP46 enzyme (Homo sapiens, UniProt P54829).
T1 sequence (P54829 1-565): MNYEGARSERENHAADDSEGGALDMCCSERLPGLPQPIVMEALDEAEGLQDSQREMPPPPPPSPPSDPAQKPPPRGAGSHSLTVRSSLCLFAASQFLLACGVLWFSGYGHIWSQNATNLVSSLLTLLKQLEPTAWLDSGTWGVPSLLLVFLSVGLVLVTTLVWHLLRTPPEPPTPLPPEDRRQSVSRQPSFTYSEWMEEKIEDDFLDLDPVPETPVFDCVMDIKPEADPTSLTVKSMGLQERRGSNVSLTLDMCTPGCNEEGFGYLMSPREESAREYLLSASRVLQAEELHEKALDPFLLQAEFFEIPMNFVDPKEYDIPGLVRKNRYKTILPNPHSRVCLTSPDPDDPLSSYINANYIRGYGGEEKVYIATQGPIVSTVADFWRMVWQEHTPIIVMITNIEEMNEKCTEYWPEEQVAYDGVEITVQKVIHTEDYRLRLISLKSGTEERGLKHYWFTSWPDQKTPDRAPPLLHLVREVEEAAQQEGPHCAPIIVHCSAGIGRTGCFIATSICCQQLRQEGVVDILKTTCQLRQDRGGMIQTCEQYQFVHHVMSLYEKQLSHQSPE
The assay is described as follows: STEP46 biochemical assay (DiFMUP fluorescence phosphatase assay). As to conditions: DiFMUP 10 μM, read-out: STEP IC50. Put shortly: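 Compounds preincubated 30 min at room temperature with purified STEP46 (1 ng/well) in 50 mM Hepes, 1 mM DTT, 0.02% Brij35, then 10 μM DiFMUP (final) added for 90 min at 27 °C; 2% DMSO, fluorescence at 360/460 nm. IC50 from four-parameter fit of % inhibition; activators reported as negative % inhibition at 25, 50 and 100 uM.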
For `CNc1nc(-c2cccnc2)nc2ccc(-c3cccc(OC)c3)cc12` [Compound 1248], the IC50 fell in the range of 1000 to 10000 nM.
To `COc1ccc2nc(-c3cccnc3)nc(Nc3nc(-c4ccc(Br)cc4)cs3)c2c1` [Compound 415] belongs 1000 to 10000 nM; to `Fc1ccc(Nc2nc(-c3cccnc3)nc3ccc(-c4ccc(Cl)cc4)cc23)cc1Cl` [Compound 630], 1000 to 10000 nM; to `CCOc1ccc2nc(-c3cccnc3)nc(Nc3ccc4c(c3)NC(=O)CC4)c2c1` [Compound 337], less than 1000 nM.
For the molecule `CNc1nc(-c2cccnc2)nc2cc(-c3cccc(F)c3F)ccc12` [Compound 1371], the IC50 lay within 1000 to 10000 nM.
For `COc1ccc(-c2csc(Nc3nc(-c4cccnc4)nc4ccc(OC)cc34)n2)cc1` [Compound 435], the IC50 is less than 1000 nM.
To `Nc1nc(-c2cccnc2)nc2cc(-c3cc(F)ccc3F)ccc12` [Compound 1395] belongs 1000 to 10000 nM; to `Fc1cccc(-c2ccc3nc(-c4cccnc4)nc(Nc4ccc(F)c(Cl)c4)c3c2)c1` [Compound 634], 1000 to 10000 nM; to `CNc1nc(-c2cccnc2)nc2c(C)cc(-c3ccccc3C#N)cc12` [Compound 1284], 1000 to 10000 nM.
The same measure for `CNc1c(-c2cccc(C#N)c2)ccc2nc(-c3cccnc3)nc(C)c12` [Compound 1423]: greater than 10000 nM; for `COc1ccc2nc(-c3cccnc3)nc(Nc3nc(-c4ccccc4)c(C(N)=O)s3)c2c1` [Compound 1125]: 1000 to 10000 nM.
The same measure for `COc1ccc2nc(-c3cccnc3)nc(Nc3nc(-c4cccc(F)c4)cs3)c2c1` [Compound 441]: 1000 to 10000 nM; for `CNc1nc(-c2cccnc2)nc2cc(-c3ccc(C)cc3)ccc12` [Compound 1362]: 1000 to 10000 nM.
With `Cc1cc(Cl)cc2c(Nc3cccc(C#N)c3)nc(-c3cnccn3)nc12` [Compound 1228], the IC50 fell in the range of 1000 to 10000 nM.
Take `CCc1sc(Nc2nc(-c3cccnc3)nc3ccc(OC)cc23)nc1-c1ccccc1` [Compound 463]: the IC50 is 1000 to 10000 nM.
For the molecule `COc1ccc2nc(-c3cccnc3)nc(Nc3cccc4c3OC(F)(F)C(F)(F)O4)c2c1` [Compound 342], the IC50 fell in the range of 1000 to 10000 nM.
To `COc1ccc2nc(-c3cccnc3)nc(Nc3ccc4ccc(=O)[nH]c4c3)c2c1` [Compound 325] belongs less than 1000 nM; to `COc1ccc2nc(-c3cccnc3)nc(Nc3nc(-c4cccc(OC(F)(F)F)c4)cs3)c2c1` [Compound 455], 1000 to 10000 nM.
Take `CCOc1ccc2nc(-c3cccnc3)nc(Nc3ccc4nonc4c3)c2c1` [Compound 334]: the IC50 was 1000 to 10000 nM.
The same measure for `COc1ccc2nc(-c3cccnc3)nc(Nc3nc(-c4ccc(F)cc4F)cs3)c2c1` [Compound 446]: 1000 to 10000 nM; for `COc1cccc(-c2csc(Nc3nc(-c4cccnc4)nc4ccc(OC)cc34)n2)c1` [Compound 434]: 1000 to 10000 nM; for `CNc1nc(-c2ccnnc2)nc2ccc(-c3ccc(F)cc3F)cc12` [Compound 1238]: 1000 to 10000 nM.
To `COc1ccc2nc(-c3cccnc3)nc(Oc3ccc4[nH]c(=O)ccc4c3)c2c1` [Compound 346] belongs 1000 to 10000 nM; to `O=[N+]([O-])c1ccccc1-c1ccc2nc(-c3cccnc3)nc(Nc3ccc(F)c(Cl)c3)c2c1` [Compound 640], 1000 to 10000 nM; to `CNc1nc(-c2cccnc2)nc2cc(-c3cc(F)cc(F)c3)ccc12` [Compound 1374], 1000 to 10000 nM.
`COc1ccccc1-c1ccc2nc(-c3cccnc3)nc(Nc3ccc(F)c(Cl)c3)c2c1` [Compound 637]: the IC50 fell in the range of 1000 to 10000 nM.
For `CN(C)c1nc(-c2cccnc2)nc2cc(-c3cc(F)ccc3F)ccc12` [Compound 1396], the IC50 is 1000 to 10000 nM.
The same measure for `COc1ccc2nc(-c3cccnc3)nc(Nc3nc(-c4ccc(F)c(F)c4)cs3)c2c1` [Compound 445]: less than 1000 nM; for `Fc1ccc(Nc2nc(-c3cccnc3)nc3cc(-c4cccc(F)c4F)ccc23)cc1Cl` [Compound 697]: 1000 to 10000 nM.
To `N#Cc1cccc(-c2ccc3c(Nc4ccc(F)c(Cl)c4)nc(-c4cccnc4)nc3c2)c1` [Compound 686] belongs less than 1000 nM; to `CCOc1ccc2nc(-c3cccnc3)nc(Nc3nc(-c4cccc(F)c4F)cs3)c2c1` [Compound 470], 1000 to 10000 nM; to `CNc1nc(-c2cncnc2)nc2ccc(-c3cccc(F)c3F)cc12` [Compound 1239], 1000 to 10000 nM.
With `COc1ccc2nc(-c3cccnc3)nc(Nc3ccc4c(c3)OCCO4)c2c1` [Compound 297], the IC50 is greater than 10000 nM.
For the molecule `COc1ccc2nc(-c3cccnc3)nc(Nc3nc(-c4cccc(C(F)(F)F)c4)cs3)c2c1` [Compound 449], the IC50 is 1000 to 10000 nM.
On to `COc1ccc2nc(-c3cccnc3)nc(Nc3nc(-c4cccc(Cl)c4)cs3)c2c1` [Compound 430], for which the 50% inhibitory concentration (IC50) is less than 1000 nM.
The same measure for `CN(C)c1ccc(-c2ccc3nc(-c4cccnc4)nc(Nc4ccc(F)c(Cl)c4)c3c2)cc1` [Compound 668]: less than 1000 nM; for `CNc1nc(-c2cccnc2)nc2cc(-c3cccc(C(C)=O)c3)ccc12` [Compound 1350]: 1000 to 10000 nM.
Turning to `CN(C)c1nc(-c2cccnc2)nc2ccc(-c3cccc(Cl)c3)cc12` [Compound 1333], the IC50 is greater than 10000 nM.
As to `Fc1ccc(Nc2nc(-c3cccnc3)nc3ccc(-c4ccccc4)cc23)cc1Cl` [Compound 631], the IC50 lay within 1000 to 10000 nM.
The same measure for `CNc1nc(-c2cccnc2)nc2cc(-c3cc(F)ccc3F)c(C)cc12` [Compound 1406]: 1000 to 10000 nM; for `COc1ccc2nc(-c3cccnc3)nc(Nc3nc(-c4cccc(F)c4F)cs3)c2c1` [Compound 452]: less than 1000 nM.
As to `Fc1ccc(-c2ccc3c(Nc4ccc(F)c(Cl)c4)nc(-c4cccnc4)nc3c2)cc1F` [Compound 674], the IC50 is 1000 to 10000 nM.
With `COc1ccc2nc(-c3ccnnc3)nc(Nc3ccc(F)c(F)c3)c2c1` [Compound 1186], the IC50 was in the range of 1000 to 10000 nM.
For the molecule `COc1ccc2nc(-c3cccnc3)nc(Nc3ccc4oc(=O)[nH]c4c3)c2c1` [Compound 317], the IC50 lay in the range of 1000 to 10000 nM.
To `CNc1nc(-c2cccnc2)nc2cc(C)c(-c3ccc(F)cc3)cc12` [Compound 1414] belongs 1000 to 10000 nM; to `CN(C)c1nc(-c2cccnc2)nc2ccc(-c3cccc(F)c3F)cc12` [Compound 1380], 1000 to 10000 nM; to `Clc1ccc2c(Nc3ccc(Cl)c(Cl)c3)nc(-c3ccnnc3)nc2c1` [Compound 1204], greater than 10000 nM.
To `COc1ccc2nc(-c3cnccn3)nc(Nc3cc(Cl)cc(Cl)c3)c2c1` [Compound 1194] belongs less than 1000 nM.
As to `NC(=O)c1cccc(-c2ccc3c(Nc4ccc(F)c(Cl)c4)nc(-c4cccnc4)nc3c2)c1` [Compound 691], the IC50 was less than 1000 nM.
`N#Cc1cccc(-c2ccc3nc(-c4cccnc4)nc(Nc4ccc(F)c(Cl)c4)c3c2)c1` [Compound 633]: the IC50 lay in the range of 1000 to 10000 nM.
The same measure for `O=[N+]([O-])c1cccc(-c2ccc3nc(-c4cccnc4)nc(Nc4ccc(F)c(Cl)c4)c3c2)c1` [Compound 635]: less than 1000 nM; for `NC(=O)c1ccccc1Nc1nc(-c2cccnc2)nc2cc(-c3ccc(F)cc3)ccc12` [Compound 701]: 1000 to 10000 nM.
To `CCOC(=O)c1sc(Nc2nc(-c3cccnc3)nc3ccc(OC)cc23)nc1-c1ccccc1` [Compound 466] belongs 1000 to 10000 nM; to `FC(F)Oc1cccc(Nc2nc(-c3ccnnc3)nc3ccccc23)c1` [Compound 1183], 1000 to 10000 nM.
To `COc1ccc2nc(-c3cccnc3)nc(Nc3cc(-c4ccc(Cl)cc4)nn3C)c2c1` [Compound 403] belongs 1000 to 10000 nM; to `CNc1nc(-c2cccnc2)nc2c(C)c(-c3cccc(F)c3)ccc12` [Compound 1449], greater than 10000 nM; to `CCOc1ccc(-c2ccc3nc(-c4cccnc4)nc(Nc4ccc(F)c(Cl)c4)c3c2)cn1` [Compound 661], less than 1000 nM.
In the case of `COc1ccc2c(Nc3ccc(F)c(Cl)c3)nc(-c3ccnnc3)nc2c1` [Compound 1155], the half-inhibitory concentration (IC50) fell in the range of 1000 to 10000 nM.
As for `COc1ccc2nc(-c3cccnc3)nc(Nc3ccccc3C(=O)NCc3ccc4c(c3)CCC4)c2c1` [Compound 900], the IC50 was in the range of 1000 to 10000 nM.
The same measure for `CCOc1ccc2nc(-c3cccnc3)nc(Nc3nc(-c4ccc(F)cc4F)cs3)c2c1` [Compound 472]: 1000 to 10000 nM; for `CNc1nc(-c2cccnc2)nc2ccc(-c3cccnc3OC)cc12` [Compound 1330]: greater than 10000 nM; for `Clc1cc(Cl)cc(Nc2nc(-c3ccnnc3)nc3cc(Cl)ccc23)c1` [Compound 1205]: 1000 to 10000 nM.
For `CNc1nc(-c2cccnc2)nc2ccc(-c3cc(OC)cc(OC)c3)cc12` [Compound 1357], the IC50 is 1000 to 10000 nM.
Regarding `CCOc1cccc(-c2ccc3nc(-c4cccnc4)nc(Nc4ccc(F)c(Cl)c4)c3c2)c1` [Compound 657], the IC50 is less than 1000 nM.
The same measure for `Clc1ccc(Nc2nc(-c3cnccn3)nc3ccccc23)cc1Cl` [Compound 1218]: 1000 to 10000 nM.
Consider `O=C(c1ccc(-c2ccc3nc(-c4cccnc4)nc(Nc4ccc(F)c(Cl)c4)c3c2)cc1)N1CCCCC1` [Compound 665], for which the IC50 was 1000 to 10000 nM.
